Results from patent US11739083B2, “Disposable sensor chip with reagent including 2-substituted benzothiazolyl-3-substituted phenyl-5-substituted sulfonated phenyl-2H-tetrazolium salt” (TERUMO KABUSHIKI KAISHA, priority 2016, dated 2023).

Legend:
[1] = Maximum absorption wavelength (λmax) of formazan-nickel chelate by spectrophotometer; format: physicochemical; conditions: chelate of formazan and nickel ion, aqueous MOPS, cell length 10 mm, n=1
Procedure: 10 mM aqueous solution of MOPS was added to each of the formazan compounds so as to obtain a final concentration of […], and thereby 100 μL of a sample was produced. At this time, all of the samples were red-brown in color. Apart from this, a 1 M aqueous solution of nickel ion was produced.
For mixed solutions of various compounds in an aqueous solution of formazan and an aqueous solution of nickel, the spectra were measured with a spectrophotometer (measurement cell length: 10 mm) (n=1). Based on each of the spectra, the maximum absorption wavelength (λmax) (nm) of each of the compounds in formazan was determined. From FIG. 1, it is understood that the maximum absorption wavelength (λmax) of the chelate compound of formazan compound 1 and nickel ion is 630 nm.
The absorbance at the maximum absorption wavelength is denoted as 100%.

[2] = Evaluation of water-solubility (visual check for precipitate); format: physicochemical; conditions: RO water / 0.5 M MOPS solution (1:1), aqueous buffer, thermodynamic from solid; RO water and 0.5 M MOPS pH 7.2; 200, 100, 20 mM; stirred 5 minutes
Procedure: After the mixture was stirred for 5 minutes, a precipitate was checked by visual inspection. […] After the mixture was stirred for 5 minutes, a precipitate was checked by visual inspection. […] After the mixture was stirred for 5 minutes, a precipitate was checked by visual inspection.

[3] = Evaluation Example 1: evaluation as blood glucose meter sensor
Procedure: Separately, 100 μL of RO water was added to 7 mg of a glucose dehydrogenase (GDH-FAD) (manufactured by TOYOBO CO., LTD., product No.: GLD-351) to dissolve the enzyme, and thus a GDH solution was produced. Furthermore, 200 μL of RO water was added to 3.5 mg of 1-methoxy-5-methylphenazium methyl sulfate (m-PMS) (manufactured by DOJINDO LABORATORIES) to dissolve the compound, and thus an s-PMS solution was produced. 1 mL of RO water was added to 129 mg of nickel chloride to dissolve the salt, and thus a nickel solution was produced.
The coating liquid obtained as described above was applied on a PET film, and a reagent ribbon 1 was produced. The area of coating was 1.5 mm×75 mm (total coating amount 5.6 μL). This reagent ribbon 1 was cut in the longitudinal direction, and a reagent piece 2 was obtained (1.5 mm×3 mm).
Along the two edges of a PET film 5 that would become one surface of a blood glucose meter sensor, a double-sided tape having a thickness of […] was provided as a spacer. […]
A whole blood sample (Ht40, 100 mg/dL) (hematocrit value 40%, glucose concentration 100 mg/dL) was spotted at the flow channel inlet port of the blood glucose meter sensor thus produced. The whole blood sample (Ht40, 100 mg/dL) was produced as follows: whole blood was collected into a heparin-containing blood sampling tube, the hematocrit value of this whole blood was measured, and the hematocrit value of the whole blood sample was regulated to be Ht40 by adding the blood plasma obtained by separation in advance, or by removing the blood plasma of the whole blood sample, as appropriate. […] The specimen was spotted on the reagent part, and then after 9 seconds, the spectrum was measured using a fiber spectrophotometer. The absorbance at the maximum absorption wavelength was measured using the spectrum measured with each of the blood glucose meter sensors that used various compounds. The absorbance obtainable in the case of measuring the whole blood sample (Ht40, 100 mg/dL) was designated as AbsBG100. […]

[4] = Evaluation Example 3: estimation of molar extinction coefficient; format: physicochemical; conditions: colored chelate compound of formazan and Ni2+ at λmax=635 nm; FIG. 18
Procedure: A measurement solution was produced in the same manner as described in the section for the evaluation of the chelation rate and the maximum absorption wavelength (λmax), using the tetrazolium compound 1 of Example 1.
Estimation of the molar extinction coefficient was carried out using the blood glucose meter sensor of FIG. 13. At this time, it is assumed that tetrazolium compound 1 reacts with glucose at a ratio of 1:1 (molar ratio). The concentration (mol/L) of β-glucose include in the spotted aqueous glucose solution was designated as x, and the value obtained by calculating the absorbance at 630 nm of the blood glucose meter sensor having aqueous glucose solution spotted thereon, to a value per 1 cm, was designated as y. The gradient of a straight line obtained at that time is designated as the molar extinction coefficient (calculated based on a glucose molecular weight 180.16, and a β-glucose ratio in the solution of 62%).
FIG. 18 presents a graph obtained when the concentration (mol/L) of β-glucose was used as x value, and the absorbance at λmax=635 nm of colored chelate compound of formazan and Ni^2+, which was calculated into a value per 1 cm (abs/cm), was used as y value. From the graph, the molar extinction coefficient at λmax=635 nm of a colored chelate compound of formazan and Ni^2+ is ε=22,594 L/mol·cm.

[5] = Evaluation of stability (absorbance increase of measurement solution over 6 hours); conditions: FIG. 3; absorbance increase per hour over 6 hours
Procedure: To 0.02 mmol of each compound, 75 μL of RO water and 100 μL of a 0.5 M MOPS solution (pH 7.2) were added, and the compound was dissolved therein. The solution was used as a sample.
To 175 μL of this sample, 10 μL of the GDH solution, 5 μL of the m-PMS solution, and 10 μL of the nickel solution, all of which had been produced in the same manner as in the above section (Evaluation of sensitivity), were added, and thereby a measurement solution was produced.
As a control, 85 μL of RO water and 100 μL of a 0.5 M MOPS solution (pH 7.2) were added to 11.6 mg of 2-benzothiazolyl-3-(4-carboxy-2-methoxyphenyl)-5-[4-(2-sulfoethylcarbamoyl)phenyl]-2H-tetrazolium (WST-4), and the compound was dissolved. Thus, a control sample was produced. […] Thus, a control reaction solution was produced.
At the time of production of the measurement solution (0 hour), and after 1 hour, 2 hours, and 6 hours from the production, the spectra of the measurement solutions produced as described above were measured using a spectrophotometer (measurement cell length: 50 μm) (n=1). For each spectrum, the absorbance at the maximum absorption wavelength (λmax) of each compound as determined above was measured. The absorbances measured at the time of production of the measurement solution (0 hour) and after 6 hours from the production were designated as Abs0 h and Abs6 h, respectively. […]

Maximum absorption wavelength (λmax) [1]: 630 nm
solubility at 5 min [2]: > 200 mM
molar extinction coefficient ε [4]: 22,594 L/mol·cm
[(Abs6 h−Abs0 h)/6] value [5]: about 0.008
Structure (SMILES): COc1ccc2nc(-n3nc(-c4ccc(S(=O)(=O)O)cc4S(=O)(=O)[O-])n[n+]3-c3ccc(OC)c(S(=O)(=O)O)c3)sc2c1 [Example 1]
time to completion of color development ([3]; whole blood and aqueous glucose solution, absorbance at 630 nm, FIG. 7): 5 s
absorbance ([3]; whole blood and aqueous glucose solutions, 9 seconds from initiation of reaction, FIG. 6): higher than 0.2
color development (ΔAbs=AbsBG100−AbsBG0) relative to WST-4 (650 nm) ([3]; whole blood sample Ht40, 100 mg/dL, 9 seconds, FIG. 5): about 3 times
